In patent US20250049800A1, “VCP/p97 INHIBITOR FOR THE TREATMENT OF CANCER” (CASI Pharmaceuticals, Inc., priority 2021, published 2025):
pIC50: −log10 of the molar value. Read-outs that look alike come from different tables or passages of the source.

What was measured:
Assay in all cases: Cell Titer-Glo viability, fixed agent + dose response agent combinations
Type in all cases: cell-based, human
MV4; 11 cell line = conditions: 11; for pIC50: Homo sapiens, MV4-11, MV4, read-out: IC50; for Combination:Monotherapy IC50 Ratio: MV4
Description: (§1) The additional therapeutic agents for this example were azacitidine (Cayman Chemical Cat No. 11164), decitabine (Sigma Cat No. A3656) and venetoclax (InvivoChem Cat. No. V0001).
(§2) Cell Culture: Three human acute myeloid leukemia tumor cell lines were used in this study: HL60, MV4;11 and MOLM-13. HL60 and MV4;11 were grown in IMDM base media with 20% and 10% FBS, respectively. MOLM-13 was grown in RPMI 1640 base media with 20% FBS. All culture media contained 2 mM glutamine, 100 units/mL sodium penicillin G, […] gentamicin, and 100 µg/mL streptomycin sulfate. The tumor cells were cultured in tissue culture flasks in a humidified incubator at 37° C., in an atmosphere of 5% CO2 and 95% air. Assay: Tumor cells were seeded in duplicate in a volume of 100 µL/well of media into 96-well micro-culture plates at initial densities low enough to allow for several population doublings (typically three to five) during the indicated incubation period. After a 24 hour incubation, test agents were added to each well. After 72 hours of culture with test articles, cell viability was determined using the Cell Titer-Glo® (Promega G7571) assay. Briefly, Cell Titer-Glo® (Promega G7571) reagents were equilibrated at room temperature for 30 minutes; 100 μL per well was added at endpoint (72 hours). Plates were gently shaken for two minutes and then incubated at room temperature for ten minutes prior to reading luminescence on the BMG Clariostar Plus microplate reader.
(§3) An IC50 ratio for each combination was calculated from the ratio of the combination IC50 as compared to the applicable no fixed agent (vehicle) control.

HL-60 cell line = conditions: for Combination:Monotherapy IC50 Ratio: HL-60; for pIC50: Homo sapiens, HL-60, HL-60, read-out: IC50
Description: as §1, §2, §3

MOML-13 cell line = conditions: MOML-13; for pIC50: Homo sapiens, read-out: IC50
Description: as §1, §2, §3

[1] = fixed agent Azacitidine - 500 nM
[2] = fixed agent Azacitidine - 3150 nM
[3] = fixed agent Decitabine - 215 nM
[4] = fixed agent Venetoclax + Azacitidine - 20 nM
[5] = fixed agent Venetoclax + Azacitidine - 50 nM
[6] = fixed agent Azacitidine - 5750 nM
[7] = fixed agent Azacitidine - 9800 nM
[8] = fixed agent Decitabine - 175 nM
[9] = fixed agent Decitabine - 1700 nM
[10] = fixed agent Venetoclax + Azacitidine - 85 nM
[11] = fixed agent Venetoclax + Azacitidine - 475 nM
[12] = fixed agent Azacitidine - 105 nM
[13] = fixed agent Azacitidine - 850 nM
[14] = fixed agent Decitabine - 2.5 nM
[15] = fixed agent Decitabine - 8.5 nM
[16] = fixed agent Venetoclax + Azacitidine - 6.5 nM

## Cc1cc2c(C(N)=O)cccc2n1-c1nc2c(c(NCc3ccccc3)n1)CCCN2 [Compound 1, 1-(4-(benzylamino)-5,6,7,8-tetrahydropyrido[2,3-d]pyrimidin-2-yl)-2-methyl-1H-indole-4-carboxamide]
MV4; 11 cell line; [1]
  pIC50: 6.94
  Combination:Monotherapy IC50 Ratio: 0.46
MV4; 11 cell line; [2]
  pIC50: 6.93
  Combination:Monotherapy IC50 Ratio: 0.47
MV4; 11 cell line; fixed agent Decitabine - 30 nM
  pIC50: 6.93
  Combination:Monotherapy IC50 Ratio: 0.47
MV4; 11 cell line; [3]
  pIC50: 7.04
  Combination:Monotherapy IC50 Ratio: 0.36
MV4; 11 cell line; [4]
  pIC50: 6.79
  Combination:Monotherapy IC50 Ratio: 0.65
MV4; 11 cell line; [5]
  pIC50: 6.93
  Combination:Monotherapy IC50 Ratio: 0.47
HL-60 cell line; [6]
  Combination:Monotherapy IC50 Ratio: 1.02
  pIC50: 6.51
HL-60 cell line; [7]
  Combination:Monotherapy IC50 Ratio: 0.85
  pIC50: 6.59
HL-60 cell line; [8]
  Combination:Monotherapy IC50 Ratio: 0.96
  pIC50: 6.53
HL-60 cell line; [9]
  Combination:Monotherapy IC50 Ratio: 1.06
  pIC50: 6.49
HL-60 cell line; [10]
  Combination:Monotherapy IC50 Ratio: 0.84
  pIC50: 6.59
HL-60 cell line; [11]
  Combination:Monotherapy IC50 Ratio: 0.84
  pIC50: 6.59
MOML-13 cell line; [12]
  pIC50: 7.07
  Combination:Monotherapy IC50 Ratio: 0.39
MOML-13 cell line; [13]
  pIC50: 7.07
  Combination:Monotherapy IC50 Ratio: 0.39
MOML-13 cell line; [14]
  pIC50: 6.92
  Combination:Monotherapy IC50 Ratio: 0.56
MOML-13 cell line; [15]
  pIC50: 7.19
  Combination:Monotherapy IC50 Ratio: 0.30
MOML-13 cell line; [16]
  pIC50: 6.81
  Combination:Monotherapy IC50 Ratio: 0.71
MOML-13 cell line; [4]
  pIC50: 6.95
  Combination:Monotherapy IC50 Ratio: 0.52
